Results from patent US9145375B2, “Quinazolinone compounds” (PRANA BIOTECHNOLOGY LIMITED, priority 2008, dated 2015).
“And” between values parts separate entries of the source, which are not always exact repeats. Equal entries are not always repeated.

What was measured:
[1] = tested on: MPTP induced cell death in the SN; assay: Parkinson's disease in vivo: MPTP model; design: species or system mouse; conditions: MPTP mice; for Behaviour Pole Test, % (SSV = 0%) / Behaviour Pole Test, value ± SD: 30 mg/kg; for SN cell counts % of SSV / SN cell counts (cells +/− SD): test drug 30 mg/kg daily by oral gavage, several experiments
Source text: Parkinson's Disease In Vivo Technique: MPTP
MPTP (1-methyl 4-phenyl 1,2,3,6-tetrahydropyridine) is a chemical that is related to the opioid analgesic drugs. MPTP causes Parkinsonian side-effects. This occurs when MPTP is metabolized into MPP+, which kills neurons in a part of the brain called the substantia nigra. MPP+ interferes with mitochondria metabolism which leads to cell death and causes the build up of free radicals, toxic molecules that contribute further to cell destruction. MPTP has abilities to effect neuronal death in dopaminergic cells. Such effects lead to gross depletion of dopaminergic neurons which has severe implications on cortical control of complex movements.
General Experimental Design
Determining that MPTP Causes Continued Cell Death
Control (non tg) and transgenic mice receive five intraperitoneal injections of MPTP-HCl (23 gauge needle, 20 mg\kg of free base; Sigma, St. Louis, Mo., USA) dissolved in sterile 0.9% saline at 2-h interval in 1 day. Control animals receive five intraperitoneal injections of 0.9% saline. […] 20 C57BL6, 10 control and 10 hA53T tg are used to establish the precise dose of toxin at 2 weeks. Animals are allowed to recover for 1 week, 2 weeks, 1 month, 12, months and 18 months. The animals are killed and the brains removed for histological (stereological) and biochemical analysis.
Determining Whether Test Drug Reduces MPTP Induced Cell Death
Animals are treated as described above. They are treated with test drug 2 days after MPTP injection until death. Test drug is given by oral gavage at a daily dosage of 30 mg/kg. The time of killing the animals is dependant on the analysis of Experiment 1, normally one month or less.
Drugs are administered by oral gavage, at a daily dosage of 30 mg/kg.
Mice are assessed at prior to killing the mice for histological analysis.
Motor coordination and strength are assessed using the rotarod. The rotarod consists of a plastic rotating rod of 3.6 cm axial diameter partitioned by metal disks into five sections to allow the testing of multiple mice simultaneously. Mice are trained on two sessions where the rotation speed is ramped from 0-30 rpm over 5 min and one training session where rotation is a constant 16 rpm for 5 min. Within two days of training, animals are formally assessed on the rotarod rotating at 16 rpm for a maximum of 3 min: the time to fall on this single test is the recorded data point.
The pole is a 700 mm long, 5 mm diameter, wooden rod. The rod is supported at its base and held vertical. The total walking distance for the mice is 550 mm. The time taken for the mouse to descend the pole is measured with a maximum time of 120 s. If a mouse falls, the time is scored as 120 s.

M17 = assay: Cytotox (% viable), cells marked M17; format: cell-based, human; conditions: repeat values given
Fe-DA = assay: H2O2 assay, Fe-DA (% cf. Fe 0.4 μM/DA 50 μM); format: biochemical
Procedure: (§1) This fluoresence assay evaluates the ability of a test compound to inhibit the generation of hydrogen peroxide (H2O2) by iron in the presence of a reducing substrate such as ascorbic acid. In the assay, iron in the form of FeCl3 or copper is allowed to react with ascorbic acid by incubating for 1 hr at 37° C. in the presence of the fluorescing compound DCF and horseradish peroxidase. H2O2 generated by the system is assessed by measuring the specific fluorescence profile at the excitation and emission wavelengths of 485 and 530 nm respectively, in the presence of increasing concentrations of test compound. Test compounds are ranked according to their capacity to inhibit H2O2 generated by the system where lower values reflect greater ability to inhibit H2O2 production.

[2] = tested on: M17 human neuroblastoma cells; assay: Metal Uptake Assay (metal transport); format: cell-based; conditions: 10 μM Cu + 10 μM compound, 5 hours
Procedure: Assay 3. Metal Uptake Assay
M17 human neuroblastoma cells are plated out on 6 well plates and left overnight. Enough cells are added to give approximately 70% confluent the following day of the experiment. Test compounds are added to media and mixed with equi-molar amounts of CuCl2 solution. A=10 μM Cu+10 μM MPAC; B=10 μM Cu+10 μM MPAC.
Cells are incubated in 1 ml of media/MPAC/Cu mix for 5 hours at 37° C. At the end of the incubation the media is removed with a vacuum aspirator and 1 ml of PBS added to dislodge the cells. Cells are then put into Eppendorf tubes and pelleted. The PBS is removed and the remaining cell pellets are frozen at −20 C.
The cell pellets are prepared as follows:
Received cell pellets of similar levels in 1.5 ml microfuge tubes. Added 50 μl of concentrated Nitric Acid (Aristar, BDH) to each cell pellet and allowed them to digest over night. Heated the samples for 20 min at 90° C. to complete the digestion. The volume of each sample was reduced to ˜45 ul after digestion. Added 1 ml of the 1% Nitric Acid diluent to each sample. (referred to as the “preparation solution” samples).
Measurements were made using a Varian UltraMass ICPMS instrument under operating conditions suitable for routine multi-element analysis.
The instrument was calibrated using Blank, 10, 50 and 100 ppb of a certified multi-element ICPMS standard solution (ICP-MS—CAI2-1, Accustandard) for Fe, Cu and Zn in 1% nitric acid. Used an certified internal standard solution containing 100 ppb Yttrium (Y 89) as an internal control (ICP-MS—IS-MIX1-1, Accustandard).

[3] = tested on: generation of hydrogen peroxide (H2O2) by iron; assay: H2O2 Inhibition Assay; format: biochemical
Procedure: Assay 1. H2O2 Inhibition Assay.
as §1

Mouse Plasma Conc. = format: in vivo; conditions: given as 'Up to'
Neuronal cortical cells = assay: Cytotox (% viable); Primary Neuronal Cells Neurotoxicity Assay; format: cell-based, mouse; conditions: cell type not given, repeat values given
Procedure: Assay 2 (a). Primary Neuronal Cells Neurotoxicity Assays
Cortical cultures were prepared as previously described (White et al., 1998). Embryonic day 14 BL6Jx129sv mouse cortices were removed, dissected free of meninges and dissociated in 0.025% (wt/vol) trypsin. Dissociated cells were plated in 48 well culture plates at a density of 2×10^6 cells/mL in MEM with 25% (vol/vol) FCS and 5% (vol/vol) HS and incubated at 37° C., 2 hrs. Media was then replaced with Neurobasal media (Invitrogen Life Technologies) and B27 supplements (Invitrogen Life Technologies). Cultures were maintained at 37° C. in 5% CO2. Prior to experimentation, the culture medium was replaced with Neurobasal media and B27 minus antioxidants (Invitrogen Life Technologies).
Neuronal cortical cells were cultured for five days as per Assay 2 in NB media and B27 supplement.
On day six the test compounds were added to the neuronal cell cultures in NB media and B27 supplement minus antioxidants.
Test compounds were dissolved in 100% DMSO to a concentration of 2.5 mM (10 mM if excess compound was weighed out per vial—then diluted to 2.5 mM). 2.5 mM stock solution was serially diluted 1 in 10 to give working solutions of 250 uM, 25 uM, 2.5 uM. Test compounds were not added directly to cells, instead they were added to a 48 well ‘Drug Plate’ as comprised below: • Preparation of “Drug Plate”:
Well 1: 576 ul NB+B27 (no antioxidant)*+24 ul 2.5 uM test compound
Well 2: 576 ul NB+B27 (no antioxidant)+24 μl 25 uM test compound
Well 3: 576 ul NB+B27 (no antioxidant)+24 ul 250 uM test compound
Well 4: 576 ul NB+B27 (no antioxidant)+24 ul 2.5 uM test compound
Well 5: 576 ul NB+B27 (no antioxidant)+24 ul 25 uM test compound
Well 6: 576 ul NB+B27 (no antioxidant)+24 ul 250 uM test compound
Well 7: 576 ul NB+B27 (no antioxidant)+24 ul test compound diluent**
Well 8: 600 ul NB+B27 (no antioxidant)
The Drug Plate was incubated at 37° C. for 15 mins. 200 ul of each well was added in triplicate to the corresponding cell plate. The cell plate was incubated at 37° C., for 4 days, (2 compounds are tested on each plate of cells).
*NB media and B27 (no antioxidants),
**PBT diluent 10% DMSO in NB+1327 (no antioxidants)
On completion of the assay, 1/10 volume MTS was added per well of plate (ie 25 ul/250 ul). The plates were incubated at 37° C. for 2 hrs, and then absorbance was read at 560 nm.

| Compound | Behaviour Pole Test, % (SSV = 0%) [1] [%] | Behaviour Pole Test, value ± SD [1] | SN cell counts % of SSV [1] [%] | SN cell counts (cells +/− SD) [1] | Cytotox (% viable at 1 uM) (M17) | Cytotox (% viable at 10 uM) (M17) | Fe-DA % cf. Fe 0.4 μM/DA 50 μM (Fe-DA) [%] | Metal transport [2] | IC50 [3] [nM] | Mouse Plasma Conc. (Mouse Plasma Conc.) [ng/mL] | Fe-DA % cf. Fe/DA (Fe-DA; 2 μM Fe) [%] | Cytotox (% viable at 1 uM) (Neuronal cortical cells) | Cytotox (% viable at 10 uM) (Neuronal cortical cells) |
| --- | --- | --- | --- | --- | --- | --- | --- | --- | --- | --- | --- | --- | --- |
| CCCn1c(CNC)nc2c(O)c(Cl)cc(Cl)c2c1=O [Compound F4095, 5,7-Dichloro-8-hydroxy-2-((methylamino)methyl)-3-propylquinazolin-4(3H)-one] | 24.25 | (2.21 ± 0.89) | 12.15 | (2436.00 ± 603.06) cells | – | – | – | – | – | – | – | – | – |
| CC(C)Cn1c(CN(C)C)nc2c(O)c(Cl)cc(Cl)c2c1=O.Cl [Compound F4271, 5,7-Dichloro-2-((dimethylamino)methyl)-8-hydroxy-3-isobutylquinazolin-4(3H)-one] | – | – | – | – | 104.4% and 102.3% | 61.5% and 52.5% | 57 | Metal transport 27.8% | 170 | – | – | – | – |
| CCN1CCN(Cc2nc3c(O)c(Cl)cc(Cl)c3c(=O)n2CC2CC2)CC1 [Compound F4383] | – | – | – | – | 118.5% and 102.3% | 103.4% and 92.7% | 81 | Metal transport 8% | 1510 | – | – | – | – |
| O=c1c2c(Cl)cc(Cl)c(O)c2nc(CN2CCOCC2)n1CC1CC1 [Compound F4384] | – | – | – | – | 116.3% and 106.4% | 86.5% and 73.0% | – | Metal transport 17% | – | – | – | – | – |
| CCN(CC)Cc1nc2c(O)c(Cl)cc(Cl)c2c(=O)n1CC [Compound F4386] | – | – | – | – | 101.8% and 99.8% and 101.4% and 107.9% | 105.2% and 91.9% and 111.7% and 106.8% | 77 | Metal transport 13% | 330 | ≤ 3294.1 | – | – | – |
| O=c1c2c(Cl)cc(Cl)c(O)c2nc(CN2CCCCC2)n1CC1CC1 [Compound F4391] | 9.96 | (2.63 ± 1.10) | 25.18 | (2719.11 ± 255.12) cells | 87.4% and 95.9% and 96.0% | 57.5% and 70.5% and 66.5% | – | Metal transport 34% | 590 | ≤ 17255.9 | 97 | – | – |
| CCN(CC)Cc1nc2c(O)c(Cl)cc(Cl)c2c(=O)n1C [Compound F4473] | – | – | – | – | – | – | 62 | Metal transport 9% | 600 | ≤ 1356.2 | – | 97.0% and 99.0% | 91.6% and 106.1% |
| CCn1c(CN2CCCCC2)nc2c(O)c(Cl)cc(Cl)c2c1=O [Compound F4483] | – | – | – | – | – | – | 62 | Metal transport 22% | 330 | ≤ 1585.2 | – | 93.4% and 105.5% | 99.7% and 72.3% |
| CCCN(CCC)Cc1nc2c(O)c(Cl)cc(Cl)c2c(=O)n1CC [Compound F4550] | – | – | – | – | – | – | 128 | Metal transport 35% | 750 | – | – | 88.7% and 94.7% | 71.7% and 83.5% |
| CCCN(CCC)Cc1nc2c(O)c(Cl)cc(Cl)c2c(=O)n1C [Compound F4551] | – | – | – | – | – | – | 56 | Metal transport 30% | 450 | – | – | 89.7% and 96.9% | 50.7% and 62.5% |
| CCCCN(C)Cc1nc2c(O)c(Cl)cc(Cl)c2c(=O)n1C [Compound F4552] | – | – | – | – | – | – | 59 | Metal transport 94% | 630 | – | – | 97.8% and 99.0% | 58.7% and 62.8% |
